Source: EP0068408A1 (priority 1981, dated 1983)
Converted amounts (≈) assume the structure as drawn. Like-named read-outs stand apart in the source and are kept apart here.

How the values were obtained:
influenza virus A/WSN = test: animal or person; type: in vivo, mice; settings: in Mus musculus, 360 h, read-out: Survival rate
influenza virus B/GL = test: animal or person; type: in vivo, mice; settings: for responders at 100 mg/kg / responders at 300 mg/kg / responders at 30 mg/kg: unidentified influenza virus, in Mus musculus, po, 360 h, read-out: Survival rate; for survival rates of the treated groups as compared with the control: result in words, Table 7
[1] = Acute toxicity in mice (LD50); type: in vivo; settings: ddY male mice, suspended in 5% Arabic gum solution, observed for 7 days; for LD50 at 168 h: mouse, in vivo
Procedure: Experimental Example 7: Acute Toxicity in Mice
Each compound of the invention was suspended in 5% Arabic gum solution and given orally (p.o.) or intraperitoneally (i.p.) to groups of ten ddY male mice weighed from 24 to 26 g at the dosage volume of 10 ml/kg. […] LD50 was determined according to the method of Wilcoxon and Litchfield.

coxsackie virus B1 = system: coxsackie virus B1; parameters: species or system mice; settings: mouse, in vivo, po
[2] = system: parainfluenza virus type 3; parameters: species or system mice; settings: mouse, in vivo, po
Influenza A0 = test: microbe, parasite or virus in culture; type: cell-based; settings: virus A = Influenza A0, MDCK, Vero and HEL cells, 2 or 3 days
Influenza A1 = test: microbe, parasite or virus in culture; type: cell-based
Influenza B = test: microbe, parasite or virus in culture; type: cell-based
Parainfluenza Type 3 = test: microbe, parasite or virus in culture; type: cell-based; settings: virus E = Parainfluenza Type 3
ECHO = test: microbe, parasite or virus in culture; type: cell-based
Coxsackie Type B5 = test: microbe, parasite or virus in culture; type: cell-based; settings: virus G = Coxsackie Type B5
Rhino = test: microbe, parasite or virus in culture; type: cell-based
influenza A0 virus = test: animal or person; type: in vivo, mice; settings: Mus musculus, 360 h, twice a day for 14 days, survivors at 15th day, read-out: Survival rate; for responders at 300 mg/kg: oral; for responders at 100 mg/kg: ip, intraperitoneal
[3] = ip, i.p., read-out: LD50 value, Intraperitoneal administration
[4] = po, p.o., read-out: LD50 value, Oral administration

| SMILES | responders at 100 mg/kg (influenza virus A/WSN; po) [%] | responders at 300 mg/kg (influenza virus A/WSN; po) [%] | responders at 100 mg/kg (influenza virus B/GL) [%] | responders at 300 mg/kg (influenza virus B/GL) [%] | LD50 at 168 h [1, 3] [mg/kg] | LD50 at 168 h [1, 4] [mg/kg] | survival rates of the treated groups as compared with the control (influenza virus B/GL) | responders at 30 mg/kg (influenza virus B/GL) [%] | Survival rate (coxsackie virus B1; 300 mg/kg) [%] | Survival rate (coxsackie virus B1; 1000 mg/kg) [%] | Survival rate ([2]; 30 mg/kg) [%] | Survival rate ([2]; 100 mg/kg) [%] | MIC (Influenza A0) [µg/mL] | MIC (Influenza A1) [µg/mL] | MIC (Influenza B) [µg/mL] | MIC (Parainfluenza Type 3) [µg/mL] | MIC (ECHO) [µg/mL] | MIC (Coxsackie Type B5) [µg/mL] | MIC (Rhino) [µg/mL] | responders at 300 mg/kg (influenza A0 virus) [%] | also measured |
| --- | --- | --- | --- | --- | --- | --- | --- | --- | --- | --- | --- | --- | --- | --- | --- | --- | --- | --- | --- | --- | --- |
| COC(=O)c1cc(S(N)(=O)=O)c(Cl)cc1Cl [Compound 31] | 40 | 50 | 40 | 50 | > 1000 | > 3000 |  |  |  |  |  |  |  |  |  |  |  |  |  |  |  |
| CCCOC(=O)c1cc(S(N)(=O)=O)c(Cl)cc1Cl [Compound 33] | 50 | 60 | 40 | 50 | > 1000 | > 3000 |  |  |  |  |  |  |  |  |  |  |  |  |  |  | responders at 30 mg/kg (influenza virus A/WSN; ip): 40%; responders at 100 mg/kg (influenza virus A/WSN; ip): 50% |
| CCCCOC(=O)c1cc(S(N)(=O)=O)c(Cl)cc1Cl [Compound 35] | 60 |  | 60 |  | > 1000 | > 3000 | extremely excellent activity | 40 | 40 | 80 | 30 | 60 |  |  |  |  |  |  |  |  | responders at 30 mg/kg (influenza virus A/WSN; po): 40% |
| CCCCOC(=O)c1ccc(Br)c(S(N)(=O)=O)c1 [Compound 30] |  |  |  | 70 |  |  | extremely excellent activity | 60 | 40 | 70 | 40 | 60 |  |  |  |  |  |  |  |  | LD50 value, Intraperitoneal administration ([1]; i.p.): >1,000 mg/kg; LD50 value, Oral administration ([1]; p.o.): >3,000 mg/kg |
| NS(=O)(=O)c1ccc(Cl)cc1C(=O)O [Compound 27] |  |  |  |  | > 1000 | > 3000 |  |  |  |  |  |  | 30 (≈ 127 µM) | 300 (≈ 1270 µM) | 100 (≈ 424 µM) | 300 (≈ 1270 µM) | 300 (≈ 1270 µM) | 300 (≈ 1270 µM) | 100 (≈ 424 µM) | 40 | responders at 100 mg/kg (influenza A0 virus): 40% |
| O=C(O)c1ccc(Cl)c(S(=O)(=O)NNc2ccc(Cl)nn2)c1 [Compound 10] |  |  |  |  | > 1000 | > 3000 |  |  |  |  |  |  | 30 (≈ 82.6 µM) | 300 (≈ 826 µM) | 300 (≈ 826 µM) | 300 (≈ 826 µM) | 100 (≈ 275 µM) | 300 (≈ 826 µM) | 300 (≈ 826 µM) | 40 | responders at 100 mg/kg (influenza A0 virus): 40% |
